How the values were obtained:
AaenPBP1 [1] = molecular target: T1, AaenPBP1 (Agriphila aeneociliella, UniProt Z9SOT8HEE8); test: fluorescence titration, Scatchard analysis; assay type: binding
T1 construct: mature protein without signal peptide (1-23 of 166 aa ORF); pET-15b with SUMO tag, His-tag Ni-NTA purification, E. coli BL21(DE3)
T1 sequence (Z9SOT8HEE8 24-166): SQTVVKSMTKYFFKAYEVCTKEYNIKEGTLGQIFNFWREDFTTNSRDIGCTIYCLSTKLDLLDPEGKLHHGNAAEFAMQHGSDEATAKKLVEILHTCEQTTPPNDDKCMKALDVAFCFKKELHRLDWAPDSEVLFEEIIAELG

AaenPBP1 [2] = molecular target: T1, AaenPBP1; test: competitive fluorescence binding (1-NPN displacement)

Ki (AaenPBP1 [2]) | SMILES | Kd (AaenPBP1 [1])
 | c1ccc(Nc2cccc3ccccc23)cc1 [1-NPN] | 4.6 µM
1.72 µM | CCCCCC/C=C\CCCCCCCCOC(C)=O [(Z)-9-Hexadecenyl acetate] | 
7.04 µM | CCCCCCCCC=O [1-Nonanal] | 

From PMC11642448, “Pheromone-Binding Protein 1 Performs a Dual Function for Intra- and Intersexual Signaling in a Moth” (International Journal of Molecular Sciences, 2024)
